Results from BigSolDB 2.1.

CC1(C)COP(=O)(C(C)(O)c2ccccc2)OC1 (configuration not stated)
Settings	solubility (mole fraction)
in 1,2-dichloroethane, 278.35 K	0.00107
in 1,2-dichloroethane, 283.25 K	0.00117
in 1,2-dichloroethane, 288.45 K	0.00154
in 1,2-dichloroethane, 293.35 K	0.00171
in 1,2-dichloroethane, 298.25 K	0.00218
in 1,2-dichloroethane, 303.15 K	0.00258
in 1,2-dichloroethane, 308.25 K	0.00291
in 1,2-dichloroethane, 313.15 K	0.00359
in 1,2-dichloroethane, 318.05 K	0.00454
in 1,2-dichloroethane, 322.95 K	0.00542
in 1,2-dichloroethane, 328.15 K	0.00651
in 1,2-dichloroethane, 333.25 K	0.00803
in 1,2-dichloroethane, 338.15 K	0.00933
in acetone, 278.15 K	0.00106
in acetone, 283.25 K	0.00132
in acetone, 288.45 K	0.0018
in acetone, 293.25 K	0.0023
in acetone, 298.35 K	0.0031
in acetone, 303.35 K	0.00363
in acetone, 308.15 K	0.00469
in acetone, 313.25 K	0.00547
in acetone, 318.05 K	0.00593
in acetone, 323.15 K	0.00616
in acetonitrile, 283.25 K	0.00144
in acetonitrile, 288.45 K	0.00169
in acetonitrile, 293.35 K	0.00198
in acetonitrile, 298.25 K	0.00221
in acetonitrile, 303.25 K	0.00268
in acetonitrile, 308.15 K	0.00342
in acetonitrile, 313.35 K	0.00392
in acetonitrile, 318.15 K	0.0046
in acetonitrile, 323.05 K	0.00562
in acetonitrile, 327.95 K	0.00654
in acetonitrile, 333.05 K	0.00866
in chloroform, 278.25 K	0.0048
in chloroform, 283.35 K	0.00547
in chloroform, 288.15 K	0.00651
in chloroform, 293.05 K	0.00768
in chloroform, 298.45 K	0.00866
in chloroform, 303.35 K	0.00944
in chloroform, 308.15 K	0.0111
in chloroform, 313.05 K	0.0128
in chloroform, 317.95 K	0.0154
in chloroform, 323.15 K	0.0188
in ethanol, 278.45 K	0.00558
in ethanol, 283.25 K	0.00618
in ethanol, 288.15 K	0.0068
in ethanol, 293.25 K	0.00786
in ethanol, 298.35 K	0.00933
in ethanol, 303.05 K	0.0106
in ethanol, 307.95 K	0.0125
in ethanol, 313.05 K	0.014
in ethanol, 318.15 K	0.0169
in ethanol, 323.05 K	0.0195
in ethanol, 327.95 K	0.0239
in ethanol, 333.15 K	0.0293
in ethanol, 338.05 K	0.0327
in ethanol, 343.15 K	0.0374
in ethyl acetate, 297.95 K	0.00054
in ethyl acetate, 303.35 K	0.00092
in ethyl acetate, 308.45 K	0.00131
in ethyl acetate, 313.15 K	0.00166
in ethyl acetate, 318.05 K	0.00221
in ethyl acetate, 323.05 K	0.0024
in ethyl acetate, 328.35 K	0.00283
in ethyl acetate, 333.25 K	0.00307
in ethyl acetate, 338.15 K	0.00336
in ethyl acetate, 342.95 K	0.0036
in methanol, 283.35 K	0.0112
in methanol, 288.15 K	0.0132
in methanol, 293.25 K	0.0146
in methanol, 298.31 K	0.0168
in methanol, 303.15 K	0.0196
in methanol, 307.95 K	0.0223
in methanol, 313.05 K	0.0259
in methanol, 317.95 K	0.0285
in methanol, 323.15 K	0.0321
